Experimental data as given in patent US6180356A (priority 1998, dated 2001).

Assays:
[1] = molecular target: diphtheria toxin (Corynephage beta, UniProt P00588); experiment: biochemical; type: biochemical, Corynebacterium diphtheriae; details: for quenching of the fluorescence of the 3 kD dextran: 10 μM inhibitor added before toxin, 3 kD CB-dextran, pH 4.5, control without agent about 75%; for inhibition of membrane pore formation (in words): whole diphtheria toxin; for inhibition at 10 µM: read-out: inhibition of 3 kD dextran release / pore formation; for inhibition of 3 kD dextran release / pore formation: relative to release in absence of target agent
Sequence of diphtheria toxin (P00588 33-567 limits assumed): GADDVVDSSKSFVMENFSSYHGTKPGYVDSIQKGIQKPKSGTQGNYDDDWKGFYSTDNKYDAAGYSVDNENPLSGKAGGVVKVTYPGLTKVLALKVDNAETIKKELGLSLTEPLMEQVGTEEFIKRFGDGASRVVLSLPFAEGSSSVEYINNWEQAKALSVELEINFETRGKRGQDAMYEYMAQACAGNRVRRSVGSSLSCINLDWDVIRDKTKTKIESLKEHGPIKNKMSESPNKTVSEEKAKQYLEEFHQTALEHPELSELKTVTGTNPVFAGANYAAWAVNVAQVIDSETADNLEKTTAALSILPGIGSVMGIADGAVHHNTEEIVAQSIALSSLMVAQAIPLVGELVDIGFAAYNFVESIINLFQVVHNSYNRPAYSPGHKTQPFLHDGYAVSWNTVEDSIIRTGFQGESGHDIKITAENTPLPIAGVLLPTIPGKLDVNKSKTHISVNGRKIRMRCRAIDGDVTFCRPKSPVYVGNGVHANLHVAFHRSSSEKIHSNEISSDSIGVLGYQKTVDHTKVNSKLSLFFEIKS

[2] = molecular target: T domain of diphtheria toxin (Corynephage beta, UniProt P00588); experiment: biochemical; type: biochemical, Corynebacterium diphtheriae; details: for quenching of 3 kD CB-dextran: control without inhibitor about 70%; for inhibition at 10 µM: read-out: inhibition of T domain membrane pore formation
Sequence of T domain of diphtheria toxin (P00588 234-410 limits assumed): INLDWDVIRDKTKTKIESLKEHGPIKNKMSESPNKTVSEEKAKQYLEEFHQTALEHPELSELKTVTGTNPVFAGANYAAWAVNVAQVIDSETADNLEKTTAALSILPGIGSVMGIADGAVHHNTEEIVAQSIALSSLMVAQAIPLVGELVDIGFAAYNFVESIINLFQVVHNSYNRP

[3] = tested on: diphtheria toxin translocation across Vero cell membranes; details: Falnes and Olsnes 1995; cited from earlier work
[4] = 10 μM inhibitor, about 5 μg of T domain
[5] = 10 μM inhibitor, 1.0 μg of toxin

Row | Structure (SMILES) | quenching of the fluorescence of the 3 kD dextran ([1]; 1.0 μg of toxin) | inhibition of membrane pore formation (in words) ([1]; 10 μM inhibitor) | inhibition of T domain membrane pore formation (in words) [2, 4] | inhibition of diphtheria toxin translocation [3] | further results
1 | O=S(=O)([O-])c1ccc2c(N=Nc3ccc(S(=O)(=O)[O-])c4ccccc34)c(O)c(S(=O)(=O)[O-])cc2c1.[Na+].[Na+].[Na+] [amaranth, 3-Hydroxy-4-[(4-sulfo-1-naphthalenyl)azo]2,7-naphthalenedisulfonic acid trisodium salt] | about 50% | weak inhibitor | – | – | inhibition at 10 µM [1]: ~30%
2 | O=S(=O)(O)c1ccc(N=Nc2ccc(N=Nc3c(O)c(S(=O)(=O)O)cc4cc(S(=O)(=O)O)ccc34)c(S(=O)(=O)O)c2)cc1 [Ponceau S, 3-hydroxy-4-[2-sulfo-4(4-sulfophenylazo)phenylazo]-2,7-naphthalenedisulfonic acid] | about 25% | moderate inhibition | strong inhibition | – | inhibition at 10 µM [1]: ~67%; quenching of 3 kD CB-dextran [2, 4]: about 20%; inhibition at 10 µM [2]: ~70%
3 | O=C(Nc1cc(S(=O)(=O)[O-])cc2cc(S(=O)(=O)[O-])c(N=Nc3cc(Nc4nc(Cl)nc(Nc5ccc(S(=O)(=O)[O-])cc5)n4)ccc3S(=O)(=O)[O-])c(O)c12)c1ccccc1.[Na+].[Na+].[Na+].[Na+] [Cibacron Red, Cibacron brilliant red 3B-A] | 0% | strong inhibition | strong inhibition | – | inhibition of 3 kD dextran release / pore formation [1, 5]: 100%; inhibition of T domain membrane pore formation ([2]; 10 μM inhibitor, about 5 μg of T domain, 3 kD CB-dextran): 87%; quenching of 3 kD CB-dextran [2, 4]: about 9%
4 | COc1cc(S(=O)(=O)O)c2ccc3c(S(=O)(=O)O)cc(S(=O)(=O)O)c4ccc1c2c43 [MPT, 8-methoxy-pyrene 1,3,6-trisulfonic acid] | – | – | – | – | diphtheria toxin pore formation inhibited (in words) ([1]; MPT as entrapped reporter, higher toxin concentrations, MPT released less than 3 kD CB-dextran): inhibited
5 | O=S(=O)(O)c1cc(N=C=S)ccc1/C=C/c1ccc(N=C=S)cc1S(=O)(=O)O [DIDS] | – | – | – | inhibitors of diphtheria toxin translocation | –
6 | Nc1c(S(=O)(=O)O)cc(Nc2ccc(Nc3nc(Cl)nc(Nc4ccccc4S(=O)(=O)O)n3)c(S(=O)(=O)O)c2)c2c1C(=O)c1ccccc1C2=O [Cibacron Blue, Cibacron Blue F3G-A] | – | Strong inhibition | somewhat less inhibition | inhibitors of diphtheria toxin translocation | quenching for all the dextrans ([1]; 10 μM inhibitor, 1.0 μg of toxin, all the dextrans): 0%; inhibition of 3 kD dextran release / pore formation [1, 5]: completely inhibited; inhibition at 10 µM [2]: ~22%
7 | CCN1C(=O)C=CC1=O [NEM] | – | – | – | inhibitors of diphtheria toxin translocation | –
